pEC50: −log10 of the molar value. Non-standard residues stand in square brackets, D forms with d. Residues, ends and D or L forms follow the SMILES beside them. *: point of attachment. DOTA = O=C(O)CN1CCN(CC(=O)O)CCN(CC(=O)*)CCN(CC(=O)O)CC1; Bpa = N[C@@H](Cc1ccc(C(=O)c2ccccc2)cc1)C(=O)O; Ala(4-thiazolyl) = N[C@@H](Cc1cscn1)C(=O)O; azaGly = NNC(=O)O; Sar = CNCC(=O)O
system: LHRH binding sites on human ovarian cancer cells (EFO-27); conditions: not given
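Further: Cell-associated radioactivity on confluent EFO-27 monolayers in 96-well plates, measured by microplate scintillation counting.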

Row | pEC50 | SMILES
1 | 6.34 | N=C(N)NCCC[C@H](NC(=O)[C@@H](Cc1ccc2ccccc2c1)NC(=O)CN1CCN(CC(=O)O)CCN(CC(=O)O)CCN(CC(=O)O)CC1)C(=O)N[C@@H](Cc1c[nH]c2ccccc12)C(=O)N[C@@H](CO)C(=O)N[C@@H](Cc1c[nH]cn1)C(=O)N[C@H](CCCNC(=N)N)C(=O)N[C@@H](Cc1c[nH]c2ccccc12)C(=O)N[C@@H](Cc1ccc(C(=O)c2ccccc2)cc1)C(=O)N1CCC[C@H]1C(=O)NCCOCCNC(=N)N [compound 2985]
2 | ≥ 6.70 | N=C(N)NCCC[C@H](NC(=O)[C@H](N)Cc1ccc2ccccc2c1)C(=O)N[C@@H](Cc1c[nH]c2ccccc12)C(=O)N[C@@H](CO)C(=O)N[C@@H](Cc1c[nH]cn1)C(=O)N[C@H](CCCNC(=N)N)C(=O)N[C@@H](Cc1c[nH]c2ccccc12)C(=O)N[C@@H](Cc1ccc(C(=O)c2ccccc2)cc1)C(=O)N1CCC[C@H]1C(=O)NCCCCNC(=O)CN1CCN(CC(=O)O)CCN(CC(=O)O)CCN(CC(=O)O)CC1 [BRU-3042]
3 | 5.70 | CN(CC(=O)N[C@@H](Cc1c[nH]cn1)C(=O)N[C@@H](Cc1c[nH]c2ccccc12)C(=O)N[C@@H](CO)C(=O)N[C@@H](Cc1c[nH]cn1)C(=O)N[C@H](CCCNC(=N)N)C(=O)N[C@@H](Cc1c[nH]c2ccccc12)C(=O)N[C@@H](Cc1ccc2ccccc2c1)C(=O)N1CCC[C@H]1C(=O)NNC(N)=O)C(=O)CN1CCN(CC(=O)O)CCN(CC(=O)O)CCN(CC(=O)O)CC1 [BRU-2624]
4 | 6.30 to 6.64 | CNCC(=O)N[C@@H](CCCNC(=N)N)C(=O)N[C@@H](Cc1c[nH]c2ccccc12)C(=O)N[C@@H](CO)C(=O)N[C@@H](Cc1c[nH]cn1)C(=O)N[C@H](CCCNC(=N)N)C(=O)N[C@@H](Cc1c[nH]c2ccccc12)C(=O)N[C@@H](Cc1ccc(C(=O)c2ccccc2)cc1)C(=O)N1CCC[C@H]1C(=O)NCCOCCNC(=O)CN1CCN(CC(=O)O)CCN(CC(=O)O)CCN(CC(=O)O)CC1 [BRU-3039]
5 | 6.01 | CN(CC(=O)N[C@@H](Cc1c[nH]cn1)C(=O)N[C@@H](Cc1c[nH]c2ccccc12)C(=O)N[C@@H](CO)C(=O)N[C@@H](Cc1c[nH]cn1)C(=O)N[C@H](CCCNC(=N)N)C(=O)N[C@@H](Cc1c[nH]c2ccccc12)C(=O)N[C@@H](Cc1ccc(C(C)(C)C)cc1)C(=O)N1CCC[C@H]1C(=O)NNC(N)=O)C(=O)CN1CCN(CC(=O)O)CCN(CC(=O)O)CCN(CC(=O)O)CC1 [BRU-2634]
6 | 4.89 | CN(CC(=O)N[C@@H](Cc1cscn1)C(=O)N[C@@H](Cc1c[nH]c2ccccc12)C(=O)N[C@@H](CO)C(=O)N[C@@H](Cc1c[nH]cn1)C(=O)N[C@H](CCCNC(=N)N)C(=O)N[C@@H](Cc1c[nH]c2ccccc12)C(=O)N[C@@H](Cc1ccc(C(=O)c2ccccc2)cc1)C(=O)N1CCC[C@H]1C(=O)NNC(N)=O)C(=O)CN1CCN(CC(=O)O)CCN(CC(=O)O)CCN(CC(=O)O)CC1 [BRU-2768] ({DOTA}-[Sar][Ala(4-thiazolyl)]WSH[dR]W[Bpa]P[azaGly]-NH2)
7 | 6.60 | CNCC(=O)N[C@@H](Cc1c[nH]cn1)C(=O)N[C@@H](Cc1c[nH]c2ccccc12)C(=O)N[C@@H](CO)C(=O)N[C@@H](Cc1c[nH]cn1)C(=O)N[C@H](CCCNC(=N)N)C(=O)N[C@@H](Cc1c[nH]c2ccccc12)C(=O)N[C@@H](Cc1ccc(O)cc1)C(=O)N1CCC[C@H]1C(=O)NNC(N)=O [BRU-2439, [Sar^1, Darg^6, azaGly^10]LHRH-II] (HELM PEPTIDE1{[Sar].H.W.S.H.[dR].W.Y.P.[O=C(NN[*:1])[*:2]].[am]}$$$$V2.0; N-terminus assumed)
8 | 5.37 | CN(CC(=O)N[C@@H](Cc1c[nH]cn1)C(=O)N[C@@H](Cc1c[nH]c2ccccc12)C(=O)N[C@@H](CO)C(=O)N[C@@H](Cc1c[nH]cn1)C(=O)N[C@H](CCCNC(=N)N)C(=O)N[C@@H](Cc1c[nH]c2ccccc12)C(=O)NC1(C(=O)N2CCC[C@H]2C(=O)NNC(N)=O)Cc2ccccc2C1)C(=O)CN1CCN(CC(=O)O)CCN(CC(=O)O)CCN(CC(=O)O)CC1 [BRU-2764]
9 | 6.30 to 6.64 | CNCC(=O)N[C@@H](CCCNC(=N)N)C(=O)N[C@@H](Cc1c[nH]c2ccccc12)C(=O)N[C@@H](CO)C(=O)N[C@@H](Cc1c[nH]cn1)C(=O)N[C@H](CCCNC(=N)N)C(=O)N[C@@H](Cc1c[nH]c2ccccc12)C(=O)N[C@@H](Cc1ccc(C(=O)c2ccccc2)cc1)C(=O)N1CCC[C@H]1C(=O)NCCCN1CCN(CCCNC(=O)CN2CCN(CC(=O)O)CCN(CC(=O)O)CCN(CC(=O)O)CC2)CC1 [BRU-3044]

same assay, conditions: BRU-2441 vs BRU-2439; BRU-2666 vs Sar1 analog; BRU-3072 vs Pro9 analog

Row | SMILES | times more potent than the comparator analog
10 | CNCC(=O)N[C@@H](Cc1c[nH]cn1)C(=O)N[C@@H](Cc1c[nH]c2ccccc12)C(=O)N[C@@H](CO)C(=O)N[C@@H](Cc1cnc[nH]1)C(=O)N[C@H](CCCNC(=N)N)C(=O)N[C@@H](Cc1c[nH]c2ccccc12)C(=O)N[C@@H](Cc1ccc(C(=O)c2ccccc2)cc1)C(=O)N1CCC[C@H]1C(=O)NNC(N)=O [BRU-2441, Sar-His-Trp-Ser-His-Darg-Trp-Bpa-Pro-azaGly-NH2] | ~2

same assay, conditions: EFO-27 cells, competition with [125I-Tyr8]BRU-2477, 90 min

Row | SMILES | pEC50
11 | N=C(N)NCCC[C@H](NC(=O)[C@H](Cc1ccc(OP(=O)(O)O)cc1)NC(=O)CN1CCN(CC(=O)O)CCN(CC(=O)O)CCN(CC(=O)O)CC1)C(=O)N[C@@H](Cc1c[nH]c2ccccc12)C(=O)N[C@@H](CO)C(=O)N[C@@H](Cc1c[nH]cn1)C(=O)N[C@H](CCCNC(=N)N)C(=O)N[C@@H](Cc1c[nH]c2ccccc12)C(=O)N[C@@H](Cc1ccc(C(=O)c2ccccc2)cc1)C(=O)N1CCC[C@H]1C(=O)NNC(N)=O [BRU-3093] | 4.77
12 | N=C(N)NCCC[C@H](NC(=O)[C@@H](Cc1ccc2ccccc2c1)NC(=O)CN1CCN(CC(=O)O)CCN(CC(=O)O)CCN(CC(=O)O)CC1)C(=O)N[C@@H](Cc1c[nH]c2ccccc12)C(=O)N[C@@H](CO)C(=O)N[C@@H](Cc1c[nH]cn1)C(=O)N[C@H](CCCNC(=N)N)C(=O)N[C@@H](Cc1c[nH]c2ccccc12)C(=O)N[C@@H](Cc1ccc(C(=O)c2ccccc2)cc1)C(=O)N1CCC[C@H]1C(=O)NCC(N)=O [compound 3005] | 6.18
13 | N=C(N)NCCC[C@H](NC(=O)[C@@H](Cc1ccc2ccccc2c1)NC(=O)CN1CCN(CC(=O)O)CCN(CC(=O)O)CCN(CC(=O)O)CC1)C(=O)N[C@@H](Cc1c[nH]c2ccccc12)C(=O)N[C@@H](CO)C(=O)N[C@@H](Cc1c[nH]cn1)C(=O)N[C@H](CCCNC(=N)N)C(=O)N[C@@H](Cc1c[nH]c2ccccc12)C(=O)N[C@@H](Cc1ccc(C(=O)c2ccccc2)cc1)C(=O)N1CCC[C@H]1C(=O)NCC(=O)NCCCO [compound 2987] | 5.64
14 | C[C@@H](NC(=O)[C@H](Cc1c[nH]cn1)NC(=O)[C@H](CO)NC(=O)[C@H](Cc1c[nH]c2ccccc12)NC(=O)[C@H](Cc1c[nH]cn1)NC(=O)CN(C)C(=O)CN1CCN(CC(=O)O)CCN(CC(=O)O)CCN(CC(=O)O)CC1)C(=O)N[C@@H](Cc1c[nH]c2ccccc12)C(=O)N[C@@H](Cc1ccc(C(=O)c2ccccc2)cc1)C(=O)N1CCC[C@H]1C(=O)NNC(N)=O [compound 2672] ({DOTA}-[Sar]HWSH[dA]W[Bpa]P[azaGly]-NH2) | 4.85

same assay, conditions: Table 5: modifications of amino acids at positions 1 and 2; in vitro binding on EFO-27 cells

Row | SMILES | pEC50
15 | N=C(N)NCCC[C@@H](NC(=O)[C@H](Cc1c[nH]cn1)NC(=O)[C@H](CO)NC(=O)[C@H](Cc1c[nH]c2ccccc12)NC(=O)[C@H](Cc1c[nH]cn1)NC(=O)[C@@H](Cc1cccc2ccccc12)NC(=O)CNC(=O)CN1CCN(CC(=O)O)CCN(CC(=O)O)CCN(CC(=O)O)CC1)C(=O)N[C@@H](Cc1c[nH]c2ccccc12)C(=O)N[C@@H](Cc1ccc(C(=O)c2ccccc2)cc1)C(=O)N1CCC[C@H]1C(=O)NNC(N)=O [BRU-2766] | 6.21
16 | N=C(N)NCCC[C@@H](NC(=O)[C@H](Cc1c[nH]cn1)NC(=O)[C@H](CO)NC(=O)[C@H](Cc1c[nH]c2ccccc12)NC(=O)[C@H](Cc1c[nH]cn1)NC(=O)[C@@H](Cc1ccccc1)NC(=O)CN1CCN(CC(=O)O)CCN(CC(=O)O)CCN(CC(=O)O)CC1)C(=O)N[C@@H](Cc1c[nH]c2ccccc12)C(=O)N[C@@H](Cc1ccc(C(=O)c2ccccc2)cc1)C(=O)N1CCC[C@H]1C(=O)NNC(N)=O [BRU-2894] | 5.70
17 | C[C@@H](C(=O)N[C@@H](Cc1c[nH]cn1)C(=O)N[C@@H](Cc1c[nH]c2ccccc12)C(=O)N[C@@H](CO)C(=O)N[C@@H](Cc1c[nH]cn1)C(=O)N[C@H](CCCNC(=N)N)C(=O)N[C@@H](Cc1c[nH]c2ccccc12)C(=O)N[C@@H](Cc1ccc(C(=O)c2ccccc2)cc1)C(=O)N1CCC[C@H]1C(=O)NNC(N)=O)N(C)C(=O)CN1CCN(CC(=O)O)CCN(CC(=O)O)CCN(CC(=O)O)CC1 [BRU-2736] | 5.85
18 | N=C(N)NCCC[C@@H](NC(=O)[C@H](Cc1c[nH]cn1)NC(=O)[C@H](CO)NC(=O)[C@H](Cc1c[nH]c2ccccc12)NC(=O)[C@H](Cc1c[nH]cn1)NC(=O)[C@@H]1CCCN1C(=O)CNC(=O)CN1CCN(CC(=O)O)CCN(CC(=O)O)CCN(CC(=O)O)CC1)C(=O)N[C@@H](Cc1c[nH]c2ccccc12)C(=O)N[C@@H](Cc1ccc(C(=O)c2ccccc2)cc1)C(=O)N1CCC[C@H]1C(=O)NNC(N)=O [BRU-2667] ({DOTA}-GPHWSH[dR]W[Bpa]P[azaGly]-NH2) | 5.14
19 | CN(CC(=O)N[C@@H](Cc1ccccc1)C(=O)N[C@@H](Cc1c[nH]c2ccccc12)C(=O)N[C@@H](CO)C(=O)N[C@@H](Cc1c[nH]cn1)C(=O)N[C@H](CCCNC(=N)N)C(=O)N[C@@H](Cc1c[nH]c2ccccc12)C(=O)N[C@@H](Cc1ccc(C(=O)c2ccccc2)cc1)C(=O)N1CCC[C@H]1C(=O)NNC(N)=O)C(=O)CN1CCN(CC(=O)O)CCN(CC(=O)O)CCN(CC(=O)O)CC1 [BRU-2738] ({DOTA}-[Sar]FWSH[dR]W[Bpa]P[azaGly]-NH2) | 5.91

same assay, conditions: Table 15: C-terminus chelator-functionalized peptides; EFO-27 cells, vs [125I-Tyr8]BRU-2477

Row | SMILES | pEC50
20 | CNCC(=O)N[C@@H](CCCNC(=N)N)C(=O)N[C@@H](Cc1c[nH]c2ccccc12)C(=O)N[C@@H](CO)C(=O)N[C@@H](Cc1c[nH]cn1)C(=O)N[C@H](CCCNC(=N)N)C(=O)N[C@@H](Cc1c[nH]c2ccccc12)C(=O)N[C@@H](Cc1ccc(C(=O)c2ccccc2)cc1)C(=O)N1CCC[C@H]1CNC(=O)CN1CCN(CC(=O)O)CCN(CC(=O)O)CCN(CC(=O)O)CC1 [compound 3117] (HELM PEPTIDE1{[Sar].R.W.S.H.[dR].W.[O=C(c1ccccc1)c1ccc(C[C@H](N[*:1])C(=O)[*:2])cc1].[O=C(O)CN1CCN(CC(=O)O)CCN(CC(=O)NC[C@@H]2CCCN2[*:1])CCN(CC(=O)O)CC1]}$$$$V2.0; N-terminus assumed) | 6.47
